One block for each molecule: values may come before it.
Legend:
[1] = test system: VIOTR; assay: Herbicidal activity, test type PE; type: in vivo; settings: TEST-TYP PE; for pest or weed control at 320 g/ha: read-out: herbizide Wirkung VIOTR
[2] = test system: SETVI; assay: Herbicidal activity, test type PE; type: in vivo; settings: TEST-TYP PE; for pest or weed control at 320 g/ha: read-out: herbizide Wirkung SETVI; for herbizide Wirkung SETVI: 320 G/HA
[3] = test system: AMARE; assay: Herbicidal activity, test type PE; type: in vivo; settings: TEST-TYP PE; for pest or weed control at 320 g/ha: Amaranthus retroflexus, read-out: herbizide Wirkung AMARE; for herbizide Wirkung AMARE: 320 G/HA
[4] = logP by HPLC on reversed-phase columns (C 18), EEC Directive 79/831 Annex V.A8; type: physicochemical; settings: c18 reversed-phase hplc, reversed-phase (C 18), read-out: log p
Source text: Die Messung der logP Werte erfolgte gemäß EEC Directive 79/831 Annex V.A8 durch HPLC (High Performance Liquid Chromatography) an reversed-phase Säulen (C 18), mit der nachfolgenden Methode: […]

[5] = test system: VERPE; assay: Herbicidal activity, test type PE; type: in vivo; settings: TEST-TYP PE; for pest or weed control at 320 g/ha: read-out: herbizide Wirkung VERPE; for herbizide Wirkung VERPE: 320 G/HA
[6] = test system: VIOTR; assay: Herbicidal activity, test type PO; type: in vivo; settings: TEST-TYP PO, 80 G/HA
[7] = test system: AMARE; assay: Herbicidal activity, test type PO; type: in vivo; settings: TEST-TYP PO, 80 G/HA
[8] = test system: STEME; assay: Herbicidal activity, test type PE; type: in vivo; settings: TEST-TYP PE, read-out: herbizide Wirkung STEME
[9] = test system: MATIN; assay: Herbicidal activity, test type PE; type: in vivo; settings: TEST-TYP PE; for pest or weed control at 320 g/ha: read-out: herbizide Wirkung MATIN
[10] = test system: VERPE; assay: Herbicidal activity, test type PO; type: in vivo; settings: TEST-TYP PO, 80 G/HA
[11] = test system: LOLMU; assay: Herbicidal activity, test type PE; type: in vivo; settings: TEST-TYP PE, read-out: herbizide Wirkung LOLMU
[12] = test system: ECHCG; assay: Herbicidal activity, test type PE; type: in vivo; settings: TEST-TYP PE, 320 G/HA
[13] = test system: PHBPU; assay: Herbicidal activity, test type PO; type: in vivo; settings: TEST-TYP PO, 80 G/HA

SMILES: CCN(C)C=Nc1ncc(C)cc1-c1ccc(Cl)c(C(F)(F)F)c1 [compound 2]
pest or weed control at 320 g/ha [1]: 90%
pest or weed control at 320 g/ha [2]: 90%

SMILES: CCN(C)C=Nc1ncc(Cl)cc1-c1ccc(Cl)c(C(F)(F)F)c1 [compound 4]
pest or weed control at 320 g/ha [3]: 90%
pest or weed control at 320 g/ha [1]: 80%
pest or weed control at 320 g/ha [2]: 90%

chromatographic logP [4]: 1.75
SMILES: CCN(C=Nc1ncc(C)cc1-c1ccc(Cl)c(C(F)(F)F)c1)CC [compound 7]

chromatographic logP [4]: 2.03
SMILES: Cc1cnc(N=CN(C(C)C)C(C)C)c(-c2ccc(Cl)c(C(F)(F)F)c2)c1 [compound 8]

chromatographic logP [4]: 0.87
SMILES: CC(=Nc1ncc(C)cc1-c1ccc(Cl)c(C(F)(F)F)c1)N(C)C [compound 9]

chromatographic logP [4]: 1.63
SMILES: Cc1cnc(N=CN2CCCC2)c(-c2ccc(Cl)c(C(F)(F)F)c2)c1 [compound 10]

chromatographic logP [4]: 3.63
SMILES: CCN(C=Nc1ncc(Cl)cc1-c1ccc(Cl)c(C(F)(F)F)c1)CC [compound 11]
pest or weed control at 320 g/ha [3]: 80%
pest or weed control at 320 g/ha [1]: 80%

chromatographic logP [4]: 3.71
SMILES: CC(C)N(C=Nc1ncc(Cl)cc1-c1ccc(Cl)c(C(F)(F)F)c1)C(C)C [compound 12]

chromatographic logP [4]: 2
SMILES: CN(C)C=Nc1ncc(Cl)cc1-c1ccc(F)c(C(F)(F)F)c1 [compound 13]
pest or weed control at 320 g/ha [3]: 80%
pest or weed control at 320 g/ha [5]: 80%

chromatographic logP [4]: 2.59
SMILES: CCN(C=Nc1ncc(Cl)cc1-c1ccc(F)c(C(F)(F)F)c1)CC [compound 15]
herbizide Wirkung VIOTR [6]: 80
pest or weed control at 320 g/ha [3]: 80%
herbizide Wirkung AMARE [7]: 90
pest or weed control at 320 g/ha [8]: 80%
pest or weed control at 320 g/ha [9]: 80%
pest or weed control at 320 g/ha [2]: 80%
herbizide Wirkung VERPE [10]: 80

chromatographic logP [4]: 1.75
SMILES: Fc1ccc(-c2cc(Cl)cnc2N=CN2CCCC2)cc1C(F)(F)F [compound 16]
pest or weed control at 320 g/ha [11]: 80%
pest or weed control at 320 g/ha [8]: 80%
pest or weed control at 320 g/ha [5]: 80%
pest or weed control at 320 g/ha [2]: 100%

chromatographic logP [4]: 3.09
SMILES: CCN(C)C=Nc1ncc(Br)cc1-c1ccc(Cl)c(C(F)(F)F)c1 [compound 17]

chromatographic logP [4]: 1.48
SMILES: CCN(C)C=Nc1ncc(C)cc1-c1ccc(F)c(C(F)(F)F)c1 [compound 18]
pest or weed control at 320 g/ha [3]: 80%
pest or weed control at 320 g/ha [1]: 90%
pest or weed control at 320 g/ha [5]: 100%
pest or weed control at 320 g/ha [2]: 90%

chromatographic logP [4]: 1.33
SMILES: Cc1cnc(N=CN(C)C)c(-c2ccc(F)c(C(F)(F)F)c2)c1 [compound 19]

chromatographic logP [4]: 1.3
SMILES: CC(=Nc1ncc(C)cc1-c1ccc(F)c(C(F)(F)F)c1)N(C)C [compound 20]

chromatographic logP [4]: 4.19
SMILES: CC(C)N(C=Nc1ncc(Cl)cc1-c1ccc(F)c(C(F)(F)F)c1)C(C)C [compound 21]

chromatographic logP [4]: 1.74
SMILES: CC(=Nc1ncc(Cl)cc1-c1ccc(F)c(C(F)(F)F)c1)N1CCCCC1 [compound 22]

chromatographic logP [4]: 1.46
SMILES: Cc1cnc(N=CN2CCCC2)c(-c2ccc(F)c(C(F)(F)F)c2)c1 [compound 25]
pest or weed control at 320 g/ha [3]: 80%
pest or weed control at 320 g/ha [2]: 80%

chromatographic logP [4]: 1.98
SMILES: FC(F)(F)c1ccc(-c2cc(Cl)cnc2N=CN2CCCC2)cc1Cl [compound 26]

SMILES: Cc1cnc(N=CN(C)C)c(-c2cccc(C(F)(F)F)c2)c1 [compound 31]
pest or weed control at 320 g/ha [5]: 80%
pest or weed control at 320 g/ha [2]: 80%

SMILES: CCN(C)C=Nc1ncc(C)cc1-c1cccc(C(F)(F)F)c1 [compound 32]
pest or weed control at 320 g/ha [3]: 80%
pest or weed control at 320 g/ha [1]: 80%
pest or weed control at 320 g/ha [5]: 80%
pest or weed control at 320 g/ha [9]: 90%
pest or weed control at 320 g/ha [2]: 90%

SMILES: CCN(C)C=Nc1ncc(-c2ccc(Cl)c(C(F)(F)F)c2)cc1C [compound 58]
pest or weed control at 320 g/ha [3]: 90%
pest or weed control at 320 g/ha [5]: 90%
pest or weed control at 320 g/ha [9]: 80%
herbizide Wirkung ECHCG [12]: 90
pest or weed control at 320 g/ha [2]: 90%

SMILES: Cc1cc(-c2ccc(Cl)c(C(F)(F)F)c2)cnc1N=CN(C)C [compound 59]
pest or weed control at 320 g/ha [3]: 80%
pest or weed control at 320 g/ha [1]: 80%
pest or weed control at 320 g/ha [8]: 80%
pest or weed control at 320 g/ha [5]: 80%
pest or weed control at 320 g/ha [9]: 80%

SMILES: Cc1cc(-c2ccc(F)c(C(F)(F)F)c2)cnc1N=CN(C)C [compound 64]
herbizide Wirkung VIOTR [6]: 80
pest or weed control at 320 g/ha [11]: 90%
pest or weed control at 320 g/ha [3]: 90%
herbizide Wirkung AMARE [7]: 80
pest or weed control at 320 g/ha [1]: 90%
pest or weed control at 320 g/ha [8]: 90%
pest or weed control at 320 g/ha [5]: 100%
pest or weed control at 320 g/ha [9]: 100%
pest or weed control at 320 g/ha [2]: 90%

SMILES: Cc1cc(-c2cccc(C(F)(F)F)c2)cnc1N=CN(C)C [compound 76]
pest or weed control at 320 g/ha [3]: 90%
pest or weed control at 320 g/ha [1]: 90%
pest or weed control at 320 g/ha [2]: 100%

SMILES: CCN(C)C=Nc1ncc(-c2cccc(C(F)(F)F)c2)cc1C [compound 77]
pest or weed control at 320 g/ha [11]: 90%
pest or weed control at 320 g/ha [3]: 80%
herbizide Wirkung ECHCG [12]: 90
pest or weed control at 320 g/ha [2]: 90%

SMILES: CCN(C)C=Nc1ncc(-c2ccc(Cl)c(Cl)c2)cc1C [compound 94]
pest or weed control at 320 g/ha [1]: 80%
pest or weed control at 320 g/ha [5]: 80%
pest or weed control at 320 g/ha [2]: 90%

SMILES: Cc1cc(-c2ccc(Cl)c(Cl)c2)cnc1N=CN(C)C [compound 95]
pest or weed control at 320 g/ha [1]: 80%
pest or weed control at 320 g/ha [2]: 80%

SMILES: CCN(C)C=Nc1ncc(-c2cccc(Cl)c2)cc1C [compound 101]
pest or weed control at 320 g/ha [11]: 80%
pest or weed control at 320 g/ha [3]: 80%
herbizide Wirkung AMARE [7]: 80
pest or weed control at 320 g/ha [1]: 80%
herbizide Wirkung PHBPU [13]: 80
pest or weed control at 320 g/ha [9]: 95%
herbizide Wirkung ECHCG [12]: 85
pest or weed control at 320 g/ha [2]: 90%

SMILES: Cc1cc(-c2cccc(Cl)c2)cnc1N=CN(C)C [compound 102]
pest or weed control at 320 g/ha [11]: 80%
pest or weed control at 320 g/ha [1]: 80%
pest or weed control at 320 g/ha [9]: 90%
pest or weed control at 320 g/ha [2]: 90%

SMILES: CCN(C)C=Nc1ncc(-c2cccc(C)c2)cc1C [compound 105]
herbizide Wirkung ECHCG [12]: 80
pest or weed control at 320 g/ha [2]: 80%

SMILES: Cc1cccc(-c2cnc(N=CN(C)C)c(C)c2)c1 [compound 106]
pest or weed control at 320 g/ha [1]: 80%
pest or weed control at 320 g/ha [9]: 80%

SMILES: CCN(C)C=Nc1ncc(C)cc1-c1ccc(Cl)c(C(F)(F)F)c1 [compound 127]
pest or weed control at 320 g/ha [3]: 90%
herbizide Wirkung VIOTR ([1]; 320 G/HA): 80
pest or weed control at 320 g/ha [9]: 80%
herbizide Wirkung SETVI [2]: 90

SMILES: CCN(C=Nc1ncc(Cl)cc1-c1ccc(F)c(C(F)(F)F)c1)CC [compound 140]
herbizide Wirkung AMARE [7]: 80
herbizide Wirkung PHBPU [13]: 80
herbizide Wirkung MATIN ([9]; 320 G/HA): 80
herbizide Wirkung SETVI [2]: 80
herbizide Wirkung VERPE [10]: 80

SMILES: Fc1ccc(-c2cc(Cl)cnc2N=CN2CCCC2)cc1C(F)(F)F [compound 141]
pest or weed control at 320 g/ha [3]: 80%
herbizide Wirkung SETVI [2]: 80

SMILES: CCN(C)C=Nc1ncc(C)cc1-c1ccc(F)c(C(F)(F)F)c1 [compound 142]
herbizide Wirkung AMARE [3]: 80
pest or weed control at 320 g/ha [8]: 90%
herbizide Wirkung VERPE [5]: 90
pest or weed control at 320 g/ha [9]: 80%
herbizide Wirkung SETVI [2]: 90

SMILES: Cc1cnc(N=CN2CCCC2)c(-c2ccc(F)c(C(F)(F)F)c2)c1 [compound 147]
pest or weed control at 320 g/ha [5]: 90%

SMILES: CCN(C)C=Nc1ncc(-c2ccc(Cl)c(C(F)(F)F)c2)cc1C [compound 175]
herbizide Wirkung AMARE [3]: 80
herbizide Wirkung VERPE [5]: 90
herbizide Wirkung ECHCG [12]: 90
